Source: publication PMC2819846 (Mutation research, 2008)

What was measured:
Format in all cases: cell-based
Salmonella TA98 = assay: Salmonella plate-incorporation mutagenicity assay, strain TA98, with S9 mix
Salmonella TA100 = assay: Salmonella plate-incorporation mutagenicity assay, strain TA100
Salmonella TA104 = assay: Salmonella plate-incorporation mutagenicity assay, strain TA104, with S9 mix; settings: for Mutagenic potency, Revertants/µg ± S.E., TA104: plate-incorporation, +S9
[1] = TA98 +S9, Test 1, 2 µg/plate, zero-dose 33/40/39
[2] = TA98 +S9, Test 1, 5 µg/plate, zero-dose 33/40/39
[3] = TA98 +S9, Test 1, 10 µg/plate, zero-dose 33/40/39
[4] = TA98 +S9, Test 1, 20 µg/plate, zero-dose 33/40/39
[5] = TA98 +S9, Test 1, 40 µg/plate, zero-dose 33/40/39
[6] = TA98 +S9, Test 1, 80 µg/plate, zero-dose 33/40/39
[7] = TA98 +S9, Test 2, 5 µg/plate, zero-dose 43/41/30
[8] = TA98 +S9, Test 2, 10 µg/plate, zero-dose 43/41/30
[9] = TA98 +S9, Test 3, 5 µg/plate, zero-dose 49/50/50
[10] = TA98 +S9, Test 3, 10 µg/plate, zero-dose 49/50/50
[11] = TA100 +S9, Test 1, 2 µg/plate, zero-dose 99/110/110
[12] = TA100 +S9, Test 1, 5 µg/plate, zero-dose 99/110/110
[13] = TA100 +S9, Test 1, 10 µg/plate, zero-dose 99/110/110
[14] = TA100 +S9, Test 1, 20 µg/plate, zero-dose 99/110/110
[15] = TA100 +S9, Test 1, 40 µg/plate, zero-dose 99/110/110
[16] = TA100 +S9, Test 1, 80 µg/plate, zero-dose 99/110/110
[17] = TA100 +S9, Test 2, 5 µg/plate, zero-dose 84/78/80
[18] = TA100 +S9, Test 2, 10 µg/plate, zero-dose 84/78/80
[19] = TA100 +S9, Test 3, 5 µg/plate, zero-dose 127/118/125
[20] = TA100 +S9, Test 3, 10 µg/plate, zero-dose 127/118/125
[21] = TA104 +S9, Test 2, 5 µg/plate, zero-dose 276/260/270
[22] = TA104 +S9, Test 2, 10 µg/plate, zero-dose 276/260/270
[23] = TA104 +S9, Test 3, 5 µg/plate, zero-dose 402/395/336
[24] = TA104 +S9, Test 3, 10 µg/plate, zero-dose 402/395/336

Which Rev/plate (Salmonella TA98; [1]) does the source give for O[C@@H]1c2ccccc2-c2c(ccc3ccsc23)[C@H]1O (racemic) [P[4,3-b]T 6,7-diol, (±)-trans-6,7-Dihydrophenanthro[4,3-b]thiophene 6,7-diol] here?
Its Rev/plate is 34 rev/plate.

And the Rev/plate (Salmonella TA98; [2])?
Its Rev/plate is 35 rev/plate.

And the Rev/plate (Salmonella TA98; [3])?
Its Rev/plate is 47 rev/plate.

What about the Rev/plate (Salmonella TA98; [4]) of the same compound?
Its Rev/plate is 52 rev/plate.

And the Rev/plate (Salmonella TA98; [5])?
The Rev/plate was 39 rev/plate.

What about the Rev/plate (Salmonella TA98; [6]) of the same compound?
Its Rev/plate is 36 rev/plate.

What about the Rev/plate (Salmonella TA98; [7]) of the same compound?
Its Rev/plate is 28/34.

What about the Rev/plate (Salmonella TA98; [8]) of the same compound?
Its Rev/plate is 27/28.

And the Rev/plate (Salmonella TA98; TA98 +S9, Test 2, 20 µg/plate, zero-dose 43/41/30)?
Its Rev/plate is 38/27.

What about the Rev/plate (Salmonella TA98; TA98 +S9, Test 2, 40 µg/plate, zero-dose 43/41/30) of the same compound?
The Rev/plate was 33/27.

What about the Rev/plate (Salmonella TA98; [9]) of the same compound?
Its Rev/plate is 50/53.

What about the Rev/plate (Salmonella TA98; [10]) of the same compound?
The Rev/plate was 43/47.

And the Rev/plate (Salmonella TA98; TA98 +S9, Test 3, 20 µg/plate, zero-dose 49/50/50)?
The Rev/plate was 52/47.

What about the Rev/plate (Salmonella TA98; TA98 +S9, Test 3, 40 µg/plate, zero-dose 49/50/50) of the same compound?
Its Rev/plate is 48/50.

What about the “Mutagenic potency, Revertants/µg ± S.E., TA98” value (Salmonella TA98; plate-incorporation, +S9) of the same compound?
Its value is −0.2 ± 0.1 rev/µg.

And the Rev/plate (Salmonella TA100; [11])?
Its Rev/plate is 101 rev/plate.

And the Rev/plate (Salmonella TA100; [12])?
The Rev/plate was 128 rev/plate.

And the Rev/plate (Salmonella TA100; [13])?
The Rev/plate was 126 rev/plate.

What about the Rev/plate (Salmonella TA100; [14]) of the same compound?
The Rev/plate was 127 rev/plate.

What about the Rev/plate (Salmonella TA100; [15]) of the same compound?
The Rev/plate was 132 rev/plate.

What about the Rev/plate (Salmonella TA100; [16]) of the same compound?
The Rev/plate was 137 rev/plate.

What about the Rev/plate (Salmonella TA100; [17]) of the same compound?
The Rev/plate was 97/98.

What about the Rev/plate (Salmonella TA100; [18]) of the same compound?
Its Rev/plate is 79/88.

And the Rev/plate (Salmonella TA100; TA100 +S9, Test 2, 20 µg/plate, zero-dose 84/78/80)?
The Rev/plate was 94/113.

What about the Rev/plate (Salmonella TA100; TA100 +S9, Test 2, 40 µg/plate, zero-dose 84/78/80) of the same compound?
The Rev/plate was 119/81.

What about the Rev/plate (Salmonella TA100; [19]) of the same compound?
The Rev/plate was 125/135.

What about the Rev/plate (Salmonella TA100; [20]) of the same compound?
Its Rev/plate is 132/119.

What about the Rev/plate (Salmonella TA100; TA100 +S9, Test 3, 20 µg/plate, zero-dose 127/118/125) of the same compound?
Its Rev/plate is 134/155.

And the Rev/plate (Salmonella TA100; TA100 +S9, Test 3, 40 µg/plate, zero-dose 127/118/125)?
Its Rev/plate is 136/128.

What about the “Mutagenic potency, Revertants/µg ± S.E., TA100” value (Salmonella TA100; plate-incorporation, +S9) of the same compound?
Its value is 0.4 ± 0.1 rev/µg.

And the Rev/plate (Salmonella TA104; [21])?
Its Rev/plate is 330/353.

What about the Rev/plate (Salmonella TA104; [22]) of the same compound?
The Rev/plate was 391/347.

And the Rev/plate (Salmonella TA104; TA104 +S9, Test 2, 20 µg/plate, zero-dose 276/260/270)?
Its Rev/plate is 348/340.

What about the Rev/plate (Salmonella TA104; TA104 +S9, Test 2, 40 µg/plate, zero-dose 276/260/270) of the same compound?
Its Rev/plate is 305/354.

And the Rev/plate (Salmonella TA104; [23])?
Its Rev/plate is 438/407.

And the Rev/plate (Salmonella TA104; [24])?
The Rev/plate was 442/462.

What about the Rev/plate (Salmonella TA104; TA104 +S9, Test 3, 20 µg/plate, zero-dose 402/395/336) of the same compound?
The Rev/plate was 423/445.

And the Rev/plate (Salmonella TA104; TA104 +S9, Test 3, 40 µg/plate, zero-dose 402/395/336)?
Its Rev/plate is 365/373.

And the “Mutagenic potency, Revertants/µg ± S.E., TA104” value (Salmonella TA104)?
Its value is 9.2 ± 1.3 rev/µg.

Which Rev/plate (Salmonella TA98; [1]) does the source give for c1ccc2c(c1)ccc1ccc3ccsc3c12 [P[4,3-b]T, Phenanthro[4,3-b]thiophene] here?
Its Rev/plate is 61 rev/plate.

What about the Rev/plate (Salmonella TA98; [2]) of the same compound?
Its Rev/plate is 137 rev/plate.

And the Rev/plate (Salmonella TA98; [3])?
Its Rev/plate is 141 rev/plate.

And the Rev/plate (Salmonella TA98; [4])?
The Rev/plate was 146 rev/plate.

What about the Rev/plate (Salmonella TA98; [5]) of the same compound?
The Rev/plate was 158 rev/plate.

What about the Rev/plate (Salmonella TA98; [6]) of the same compound?
Its Rev/plate is 105 rev/plate.

What about the Rev/plate (Salmonella TA98; TA98 +S9, Test 2, 1 µg/plate, zero-dose 43/41/30) of the same compound?
Its Rev/plate is 39/49.

What about the Rev/plate (Salmonella TA98; TA98 +S9, Test 2, 2 µg/plate, zero-dose 43/41/30) of the same compound?
The Rev/plate was 41/33.

And the Rev/plate (Salmonella TA98; [7])?
Its Rev/plate is 97/77.

What about the Rev/plate (Salmonella TA98; [8]) of the same compound?
The Rev/plate was 110/79.

What about the Rev/plate (Salmonella TA98; TA98 +S9, Test 3, 1 µg/plate, zero-dose 49/50/50) of the same compound?
The Rev/plate was 93/74.

What about the Rev/plate (Salmonella TA98; TA98 +S9, Test 3, 2 µg/plate, zero-dose 49/50/50) of the same compound?
Its Rev/plate is 98/77.

What about the Rev/plate (Salmonella TA98; [9]) of the same compound?
Its Rev/plate is 162/166.

What about the Rev/plate (Salmonella TA98; [10]) of the same compound?
Its Rev/plate is 194/213.

What about the “Mutagenic potency, Revertants/µg ± S.E., TA98” value (Salmonella TA98; plate-incorporation, +S9) of the same compound?
Its value is 13.7 ± 3.3 rev/µg.

What about the “Mutagenicity call TA98” value (Salmonella TA98; plate-incorporation, +S9) of the same compound?
Its value is “(+) (Called mutagenic (+) based on showing reproducible, dose-related increases in rev/plate that reached or exceeded 2-fold relative to zero-dose controls)”.

And the Rev/plate (Salmonella TA100; [11])?
Its Rev/plate is 172 rev/plate.

What about the Rev/plate (Salmonella TA100; [12]) of the same compound?
The Rev/plate was 194 rev/plate.

And the Rev/plate (Salmonella TA100; [13])?
Its Rev/plate is 190 rev/plate.

And the Rev/plate (Salmonella TA100; [14])?
Its Rev/plate is 125 rev/plate.

And the Rev/plate (Salmonella TA100; [15])?
The Rev/plate was 188 rev/plate.

What about the Rev/plate (Salmonella TA100; [16]) of the same compound?
The Rev/plate was 164 rev/plate.

What about the Rev/plate (Salmonella TA100; TA100 +S9, Test 2, 1 µg/plate, zero-dose 84/78/80) of the same compound?
Its Rev/plate is 80/84.

And the Rev/plate (Salmonella TA100; TA100 +S9, Test 2, 2 µg/plate, zero-dose 84/78/80)?
The Rev/plate was 92/89.

And the Rev/plate (Salmonella TA100; [17])?
The Rev/plate was 116/108.

And the Rev/plate (Salmonella TA100; [18])?
The Rev/plate was 119/98.

And the Rev/plate (Salmonella TA100; TA100 +S9, Test 3, 1 µg/plate, zero-dose 127/118/125)?
The Rev/plate was 142/160.

What about the Rev/plate (Salmonella TA100; TA100 +S9, Test 3, 2 µg/plate, zero-dose 127/118/125) of the same compound?
Its Rev/plate is 185/164.

And the Rev/plate (Salmonella TA100; [19])?
The Rev/plate was 218/248.

And the Rev/plate (Salmonella TA100; [20])?
Its Rev/plate is 274/291.

What about the Rev/plate (Salmonella TA100; TA100 +S9, Test 4, 1 µg/plate, zero-dose 112/140/115) of the same compound?
The Rev/plate was 160/156.

And the Rev/plate (Salmonella TA100; TA100 +S9, Test 4, 2 µg/plate, zero-dose 112/140/115)?
The Rev/plate was 164/156.

What about the Rev/plate (Salmonella TA100; TA100 +S9, Test 4, 5 µg/plate, zero-dose 112/140/115) of the same compound?
The Rev/plate was 218/198.

And the Rev/plate (Salmonella TA100; TA100 +S9, Test 4, 10 µg/plate, zero-dose 112/140/115)?
The Rev/plate was 275/234.

What about the “Mutagenic potency, Revertants/µg ± S.E., TA100” value (Salmonella TA100; plate-incorporation, +S9) of the same compound?
Its value is 12.8 ± 3.9 rev/µg.

What about the “Mutagenicity call TA100” value (Salmonella TA100; plate-incorporation, +S9) of the same compound?
Its value is “(+) (Called mutagenic (+) based on showing reproducible, dose-related increases in rev/plate that reached or exceeded 2-fold relative to zero-dose controls)”.

And the Rev/plate (Salmonella TA104; TA104 +S9, Test 2, 1 µg/plate, zero-dose 276/260/270)?
The Rev/plate was 392/313.

And the Rev/plate (Salmonella TA104; TA104 +S9, Test 2, 2 µg/plate, zero-dose 276/260/270)?
Its Rev/plate is 414/432.

What about the Rev/plate (Salmonella TA104; [21]) of the same compound?
The Rev/plate was 419/440.

And the Rev/plate (Salmonella TA104; [22])?
Its Rev/plate is 437/473.

What about the Rev/plate (Salmonella TA104; TA104 +S9, Test 3, 1 µg/plate, zero-dose 402/395/336) of the same compound?
Its Rev/plate is 457/397.

And the Rev/plate (Salmonella TA104; TA104 +S9, Test 3, 2 µg/plate, zero-dose 402/395/336)?
The Rev/plate was 468/515.

What about the Rev/plate (Salmonella TA104; [23]) of the same compound?
The Rev/plate was 490/505.

And the Rev/plate (Salmonella TA104; [24])?
The Rev/plate was 489/509.

And the Rev/plate (Salmonella TA104; TA104 +S9, Test 4, 1 µg/plate, zero-dose 482/455/462)?
Its Rev/plate is 517/524.

And the Rev/plate (Salmonella TA104; TA104 +S9, Test 4, 2 µg/plate, zero-dose 482/455/462)?
Its Rev/plate is 532/540.

What about the Rev/plate (Salmonella TA104; TA104 +S9, Test 4, 5 µg/plate, zero-dose 482/455/462) of the same compound?
Its Rev/plate is 540/497.

And the Rev/plate (Salmonella TA104; TA104 +S9, Test 4, 10 µg/plate, zero-dose 482/455/462)?
The Rev/plate was 520/592.

What about the “Mutagenic potency, Revertants/µg ± S.E., TA104” value (Salmonella TA104) of the same compound?
The value was 58.9 ± 7.9 rev/µg.
